# Assay results from patent US20260130395A1, “Water Dispersible Botanical Compositions” (Aquila Black Limited, priority 2021, published 2026).
# Experiment: Stability of cannabinoid compounds and Vitamin E components in Beverage 2 (AB Red) by LCMSMS
# Format: physicochemical
smiles,measurement,setting,value
"C=C(C)[C@@H]1CCC(C)=C[C@H]1c1c(O)cc(CCC)cc1O [CBDV, cannabidivarin]",Stability of Plant-Derived Cannabinoid Compounds in AB Red,"stored at 8° C., 29 days",0.197 µg/mL
same,Stability of Plant-Derived Cannabinoid Compounds in AB Red,"stored at 8° C., 30 days",0.200 µg/mL
same,Stability of Plant-Derived Cannabinoid Compounds in AB Red,"stored at 8° C., 60 days",0.199 µg/mL
same,Stability of Plant-Derived Cannabinoid Compounds in AB Red,"stored at 8° C., 90 days",0.196 µg/mL
same,Stability of Plant-Derived Cannabinoid Compounds in AB Red,"stored at 8° C., 120 days",0.193 µg/mL
same,Stability of Plant-Derived Cannabinoid Compounds in AB Red,"stored at 8° C., 150 days",0.198 µg/mL
same,Stability of Plant-Derived Cannabinoid Compounds in AB Red,"stored at 8° C., 180 days",0.192 µg/mL
same,Stability of Plant-Derived Cannabinoid Compounds in AB Red,"stored at 8° C., 210 days",0.193 µg/mL
same,Stability of Plant-Derived Cannabinoid Compounds in AB Red,"stored at 8° C., 240 days",0.192 µg/mL
same,Stability of Plant-Derived Cannabinoid Compounds in AB Red,"stored at 8° C., 270 days",0.195 µg/mL
same,Stability of Plant-Derived Cannabinoid Compounds in AB Red,"stored at 8° C., 300 days",0.193 µg/mL
same,Stability of Plant-Derived Cannabinoid Compounds in AB Red,"stored at 8° C., 330 days",0.191 µg/mL
same,Stability of Plant-Derived Cannabinoid Compounds in AB Red,"stored at 8° C., 360 days",0.193 µg/mL
same,Stability of Plant-Derived Cannabinoid Compounds in AB Red,"stored at 8° C., 390 days",0.194 µg/mL
same,Stability of Plant-Derived Cannabinoid Compounds in AB Red,"stored at 8° C., 420 days",0.193 µg/mL
same,Stability of Plant-Derived Cannabinoid Compounds in AB Red,"stored at 8° C., 450 days",0.195 µg/mL
same,Stability of Plant-Derived Cannabinoid Compounds in AB Red,"stored at 8° C., 480 days",0.190 µg/mL
same,Stability of Plant-Derived Cannabinoid Compounds in AB Red,"stored at 8° C., 510 days",0.184 µg/mL
same,Stability of Plant-Derived Cannabinoid Compounds in AB Red,"stored at 8° C., 540 days",0.185 µg/mL
same,Stability of Plant-Derived Cannabinoid Compounds in AB Red,"stored at 8° C., 570 days",0.183 µg/mL
same,Stability of Plant-Derived Cannabinoid Compounds in AB Red,"stored at 21-25° C., 0 days",0.20 µg/mL
same,Stability of Plant-Derived Cannabinoid Compounds in AB Red,"stored at 21-25° C., 1 days",0.20 µg/mL
same,Stability of Plant-Derived Cannabinoid Compounds in AB Red,"stored at 21-25° C., 2 days",0.20 µg/mL
same,Stability of Plant-Derived Cannabinoid Compounds in AB Red,"stored at 21-25° C., 3 days",0.20 µg/mL
same,Stability of Plant-Derived Cannabinoid Compounds in AB Red,"stored at 21-25° C., 5 days",0.19 µg/mL
same,Stability of Plant-Derived Cannabinoid Compounds in AB Red,"stored at 21-25° C., 8 days",0.20 µg/mL
same,Stability of Plant-Derived Cannabinoid Compounds in AB Red,"stored at 21-25° C., 9 days",0.20 µg/mL
same,Stability of Plant-Derived Cannabinoid Compounds in AB Red,"stored at 21-25° C., 10 days",0.20 µg/mL
same,Stability of Plant-Derived Cannabinoid Compounds in AB Red,"stored at 21-25° C., 11 days",0.20 µg/mL
same,Stability of Plant-Derived Cannabinoid Compounds in AB Red,"stored at 21-25° C., 12 days",0.20 µg/mL
same,Stability of Plant-Derived Cannabinoid Compounds in AB Red,"stored at 21-25° C., 15 days",0.20 µg/mL
same,Stability of Plant-Derived Cannabinoid Compounds in AB Red,"stored at 21-25° C., 16 days",0.19 µg/mL
same,Stability of Plant-Derived Cannabinoid Compounds in AB Red,"stored at 21-25° C., 17 days",0.20 µg/mL
same,Stability of Plant-Derived Cannabinoid Compounds in AB Red,"stored at 21-25° C., 18 days",0.20 µg/mL
same,Stability of Plant-Derived Cannabinoid Compounds in AB Red,"stored at 21-25° C., 19 days",0.19 µg/mL
same,Stability of Plant-Derived Cannabinoid Compounds in AB Red,"stored at 21-25° C., 22 days",0.20 µg/mL
same,Stability of Plant-Derived Cannabinoid Compounds in AB Red,"stored at 21-25° C., 23 days",0.19 µg/mL
same,Stability of Plant-Derived Cannabinoid Compounds in AB Red,"stored at 21-25° C., 24 days",0.19 µg/mL
same,Stability of Plant-Derived Cannabinoid Compounds in AB Red,"stored at 21-25° C., 25 days",0.19 µg/mL
same,Stability of Plant-Derived Cannabinoid Compounds in AB Red,"stored at 21-25° C., 26 days",0.19 µg/mL
same,Stability of Plant-Derived Cannabinoid Compounds in AB Red,"stored at 21-25° C., 29 days",0.19 µg/mL
same,Stability of Plant-Derived Cannabinoid Compounds in AB Red,"stored at 21-25° C., 30 days",0.20 µg/mL
same,Stability of Plant-Derived Cannabinoid Compounds in AB Red,"stored at 21-25° C., 60 days",0.20 µg/mL
same,Stability of Plant-Derived Cannabinoid Compounds in AB Red,"stored at 21-25° C., 90 days",0.19 µg/mL
same,Stability of Plant-Derived Cannabinoid Compounds in AB Red,"stored at 21-25° C., 120 days",0.19 µg/mL
same,Stability of Plant-Derived Cannabinoid Compounds in AB Red,"stored at 21-25° C., 150 days",0.20 µg/mL
same,Stability of Plant-Derived Cannabinoid Compounds in AB Red,"stored at 21-25° C., 180 days",0.20 µg/mL
same,Stability of Plant-Derived Cannabinoid Compounds in AB Red,"stored at 21-25° C., 210 days",0.19 µg/mL
same,Stability of Plant-Derived Cannabinoid Compounds in AB Red,"stored at 21-25° C., 240 days",0.20 µg/mL
same,Stability of Plant-Derived Cannabinoid Compounds in AB Red,"stored at 21-25° C., 270 days",0.20 µg/mL
same,Stability of Plant-Derived Cannabinoid Compounds in AB Red,"stored at 21-25° C., 300 days",0.19 µg/mL
same,Stability of Plant-Derived Cannabinoid Compounds in AB Red,"stored at 21-25° C., 330 days",0.19 µg/mL
same,Stability of Plant-Derived Cannabinoid Compounds in AB Red,"stored at 21-25° C., 360 days",0.19 µg/mL
same,Stability of Plant-Derived Cannabinoid Compounds in AB Red,"stored at 21-25° C., 390 days",0.19 µg/mL
same,Stability of Plant-Derived Cannabinoid Compounds in AB Red,"stored at 21-25° C., 420 days",0.19 µg/mL
same,Stability of Plant-Derived Cannabinoid Compounds in AB Red,"stored at 21-25° C., 450 days",0.19 µg/mL
same,Stability of Plant-Derived Cannabinoid Compounds in AB Red,"stored at 21-25° C., 480 days",0.19 µg/mL
same,Stability of Plant-Derived Cannabinoid Compounds in AB Red,"stored at 21-25° C., 510 days",0.19 µg/mL
same,Stability of Plant-Derived Cannabinoid Compounds in AB Red,"stored at 21-25° C., 540 days",0.19 µg/mL
same,Stability of Plant-Derived Cannabinoid Compounds in AB Red,"stored at 21-25° C., 570 days",0.18 µg/mL
